Test results published in ChEMBL document CHEMBL3352474, “Design, synthesis and biological evaluation of FLT3 covalent inhibitors with a resorcylic acid core” (Bioorg Med Chem, 2014).

How the values were obtained:
[1] = Antiproliferative activity against human THP1 cells assessed as growth inhibition at 5 uM after 72 hrs by luminescent cell viability assay; assay type: functional; conditions: THP-1, 72 h, read-out: GI
[2] = Antiproliferative activity against human THP1 cells after 72 hrs by luminescent cell viability assay; assay type: functional, cell-based; conditions: THP-1, 72 h
MV4-11 [3] = experiment: Antiproliferative activity against human MV4-11 cells assessed as growth inhibition at 5 uM after 72 hrs by luminescent cell viability assay; assay type: functional; conditions: MV4-11, 72 h, read-out: GI
MV4-11 [4] = experiment: Antiproliferative activity against human MV4-11 cells after 72 hrs by luminescent cell viability assay; assay type: functional, cell-based; conditions: MV4-11, 72 h
[5] = molecular target: T1, Receptor-type tyrosine-protein kinase FLT3 (Homo sapiens, UniProt P36888); experiment: Inhibition of recombinant FLT3 (unknown origin) by TR-FRET assay
T1 sequence (P36888 whole entry): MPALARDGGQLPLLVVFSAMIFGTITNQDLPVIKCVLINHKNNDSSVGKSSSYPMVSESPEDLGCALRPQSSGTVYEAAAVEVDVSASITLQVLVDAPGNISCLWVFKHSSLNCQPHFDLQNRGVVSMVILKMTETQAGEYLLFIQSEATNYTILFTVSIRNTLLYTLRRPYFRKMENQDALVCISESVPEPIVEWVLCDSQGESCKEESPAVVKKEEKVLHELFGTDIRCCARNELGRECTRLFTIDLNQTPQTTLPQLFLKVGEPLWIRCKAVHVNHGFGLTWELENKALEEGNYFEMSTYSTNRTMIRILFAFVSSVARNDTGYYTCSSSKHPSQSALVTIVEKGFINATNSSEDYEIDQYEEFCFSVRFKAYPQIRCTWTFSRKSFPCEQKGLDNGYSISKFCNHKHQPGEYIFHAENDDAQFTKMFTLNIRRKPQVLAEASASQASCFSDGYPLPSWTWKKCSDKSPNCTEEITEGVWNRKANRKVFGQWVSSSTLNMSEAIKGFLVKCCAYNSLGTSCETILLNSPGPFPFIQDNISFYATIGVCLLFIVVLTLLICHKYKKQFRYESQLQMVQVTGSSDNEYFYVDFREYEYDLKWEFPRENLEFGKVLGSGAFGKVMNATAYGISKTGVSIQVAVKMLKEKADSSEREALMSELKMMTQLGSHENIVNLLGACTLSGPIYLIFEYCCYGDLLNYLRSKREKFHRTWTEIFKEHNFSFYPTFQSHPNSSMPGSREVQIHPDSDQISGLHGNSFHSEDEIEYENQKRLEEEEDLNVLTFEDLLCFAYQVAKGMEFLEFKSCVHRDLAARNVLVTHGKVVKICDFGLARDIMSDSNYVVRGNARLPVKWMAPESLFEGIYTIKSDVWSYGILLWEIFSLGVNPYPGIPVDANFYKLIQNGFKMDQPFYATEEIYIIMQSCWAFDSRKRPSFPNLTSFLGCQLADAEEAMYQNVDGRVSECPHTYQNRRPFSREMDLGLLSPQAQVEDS

[6] = molecular target: Receptor-type tyrosine-protein kinase FLT3 (Homo sapiens, UniProt P36888, D835Y); experiment: Inhibition of recombinant FLT3 D835Y mutant (unknown origin) by TR-FRET assay
[7] = molecular target: Receptor-type tyrosine-protein kinase FLT3 (Homo sapiens, UniProt P36888, ITD); experiment: Inhibition of recombinant FLT3 ITD mutant (unknown origin) by RBC kinase assay
[8] = Antiproliferative activity against human HL60 cells assessed as growth inhibition at 5 uM after 72 hrs by luminescent cell viability assay; assay type: functional; conditions: HL-60, 72 h, read-out: GI
[9] = Antiproliferative activity against human HEK293T cells assessed as growth inhibition at 5 uM after 72 hrs by luminescent cell viability assay; assay type: cell-based, HEK-293T; conditions: read-out: GI
K562 = experiment: Antiproliferative activity against human K562 cells assessed as growth inhibition at 5 uM after 72 hrs by luminescent cell viability assay; assay type: functional; conditions: K562, 72 h, read-out: GI
[10] = molecular target: MAP kinase-interacting serine/threonine-protein kinase 1 (Homo sapiens) (UniProt Q9BUB5); experiment: Inhibition of MNK1 (unknown origin) at 10 uM
[11] = molecular target: MAP kinase-interacting serine/threonine-protein kinase 2 (Homo sapiens) (UniProt Q9HBH9); experiment: Inhibition of MNK2 (unknown origin) at 10 uM
[12] = molecular target: Receptor-type tyrosine-protein kinase FLT3 (Homo sapiens) (UniProt P36888)
Description: Binding affinity to FLT3 (unknown origin) assessed as dissociation half life

MAP kinase-interacting serine/threonine-protein kinase 2 (Homo sapiens), sequence (Q9HBH9 whole entry, looked up): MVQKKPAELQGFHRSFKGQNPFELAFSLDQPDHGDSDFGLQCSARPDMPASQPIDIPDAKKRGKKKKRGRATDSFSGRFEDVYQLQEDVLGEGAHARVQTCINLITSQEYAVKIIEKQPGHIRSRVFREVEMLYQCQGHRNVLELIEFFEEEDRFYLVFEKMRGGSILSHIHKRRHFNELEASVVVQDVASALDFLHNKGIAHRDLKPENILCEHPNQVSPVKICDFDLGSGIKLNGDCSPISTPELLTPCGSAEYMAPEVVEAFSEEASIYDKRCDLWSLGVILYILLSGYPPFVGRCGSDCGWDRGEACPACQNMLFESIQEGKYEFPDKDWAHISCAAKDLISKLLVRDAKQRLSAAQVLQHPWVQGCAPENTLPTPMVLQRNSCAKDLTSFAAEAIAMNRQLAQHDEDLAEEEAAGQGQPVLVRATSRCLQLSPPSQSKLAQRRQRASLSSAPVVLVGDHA
MAP kinase-interacting serine/threonine-protein kinase 1 (Homo sapiens), sequence (Q9BUB5 whole entry, looked up): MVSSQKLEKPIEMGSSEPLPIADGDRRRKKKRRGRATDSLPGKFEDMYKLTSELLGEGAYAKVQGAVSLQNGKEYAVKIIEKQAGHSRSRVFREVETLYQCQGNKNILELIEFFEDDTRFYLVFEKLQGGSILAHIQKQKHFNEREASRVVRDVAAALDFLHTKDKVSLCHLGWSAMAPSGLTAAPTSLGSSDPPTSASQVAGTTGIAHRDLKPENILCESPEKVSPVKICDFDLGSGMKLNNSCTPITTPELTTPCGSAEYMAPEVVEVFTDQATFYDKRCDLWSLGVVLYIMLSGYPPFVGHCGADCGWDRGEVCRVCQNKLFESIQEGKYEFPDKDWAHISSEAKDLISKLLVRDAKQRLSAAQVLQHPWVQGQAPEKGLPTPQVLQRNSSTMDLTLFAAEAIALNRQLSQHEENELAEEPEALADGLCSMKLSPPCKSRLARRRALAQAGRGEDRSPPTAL

Row | SMILES | inhibition of growth at 5 µM [1] [%] | IC50 [2] [µM] | inhibition of growth at 5 µM (MV4-11 [3]) [%] | IC50 (MV4-11 [4]) [µM] | IC50 [5] [µM] | IC50 [6] [µM] | IC50 [7] [µM] | inhibition of growth at 5 µM [8] [%] | inhibition at 72 h, 5 µM [9] [%] | inhibition of growth at 5 µM (K562) [%] | inhibition [10] [%] | inhibition [11] [%] | T1/2 [12] [min]
1 | C=CC(=O)NC/C=C/c1cc(OCCCN2CCOCC2)cc(O)c1C(=O)OC(C)C | 9.1 | 20.7 | 73.9 | 3.74 | 9.61 | 2.81 | 0.5 | 8.1 | 26.5 | 23 | 8 | 6.5 | 
2 | CCN(CC)C/C=C/C(=O)NC/C=C/c1cc(OCCc2ccc(F)cc2)cc(O)c1C(=O)OC(C)C | 25.7 | > 10 | 84.9 | 4.04 | > 30 | > 30 | 1.11 | 36.8 | 28.5 | 49.8 | 7.8 | 0.8 | 
3 | COc1cc(O)c(C(=O)OCc2ccc(Br)cc2)c(/C=C/CN2C(=O)C=CC2=O)c1 | 0 | 7.97 | 97.9 | 1.01 | 1.9 | 1.74 | > 30 | 36.7 | 20.1 | 28.7 | 4.3 | 0 | 
4 | CCN(CC)CCNC(=O)c1c(C)[nH]c(/C=C2\C(=O)Nc3ccc(F)cc32)c1C |  |  |  |  |  |  |  |  |  |  |  |  | 11.3
5 | COc1cc(O)c(C(=O)OC(C)C)c(CCCN2C(=O)C=CC2=O)c1 | 98.8 | 6.74 | 99.8 | 1.57 | 0.43 | 3.03 | 13.2 | 67.9 | 13.4 | 98.9 | 6.2 | 2.4 | 
